In patent US12440550B2 (priority 2015, dated 2025):

What follows are compounds tested on Calu-3 cells.
Assay type: cell-based, human
In the case of `OC[C@@H](O)[C@@H](O)[C@H](O)[C@H](O)CO` [mannitol], the “increase in transduction efficiency with respect to virus formulated in saline (factor)” value (“increase in transduction efficiency” below) is reported as 1.61. With `OC[C@H]1O[C@@](CO)(O[C@H]2O[C@H](CO)[C@@H](O)[C@H](O)[C@H]2O)[C@@H](O[C@H]2O[C@H](CO)[C@@H](O)[C@H](O)[C@H]2O)[C@@H]1O` [melezitose] the “increase in transduction efficiency” value was 1.51. `CCCCCCCCCCCCO[C@@H]1O[C@H](CO)[C@@H](O[C@H]2O[C@H](CO)[C@@H](O)[C@H](O)[C@H]2O)[C@H](O)[C@H]1O` [nDMPS, N-dodecyl-β-D-maltopyranoside, reference compound] was tested, and the “increase in transduction efficiency” value was “second most efficacious formulation”. `OC[C@H]1O[C@H](OC[C@H]2O[C@H](O[C@]3(CO)O[C@H](CO)[C@@H](O)[C@@H]3O)[C@H](O)[C@@H](O)[C@@H]2O)[C@H](O)[C@@H](O)[C@H]1O` [raffinose] was tested, and the “increase in transduction efficiency” value was “did not significantly enhance transduction”. `OC[C@@H](O)[C@@H](O)[C@H](O)[C@@H](O)CO` [sorbitol] was tested, and the “increase in transduction efficiency” value was “did not significantly enhance transduction”. `OC[C@H]1O[C@@](CO)(O[C@H]2O[C@H](CO)[C@@H](O)[C@H](O)[C@H]2O)[C@@H](O)[C@@H]1O` [sucrose] was tested, and the “increase in transduction efficiency” value was 1.96.

Tested on: Calu-3 cells
Remark: another data set of the same source
In the case of `CCCCCCCCCCCCO[C@@H]1O[C@H](CO)[C@@H](O[C@H]2O[C@H](CO)[C@@H](O)[C@H](O)[C@H]2O)[C@H](O)[C@H]1O` [nDMPS, N-dodecyl-β-D-maltopyranoside, reference compound], the cell lysis is reported as > 80%.
